# Source: patent US12259388B2, “Cofilin phosphorylation for quantifying CD4 T cell damage and predict CD4 T cell recovery from anti-retroviral therapy” (VIRONGY L.L.C., priority 2018, dated 2025)
# Assays:
# [1] = tested on: cofilin phosphorylation in A3R5.7 CD4 T cells; assay: Western blot for p-cofilin and cofilin after R10015 treatment; format: cell-based, human
# Procedure: (§1) FIG. 3. Quantification of effects of cofilin hyperactivation on T cell migration. (A) A3R5.7 T cells were treated with different dosages of R10015 for one hour. Phospho-cofilin and total cofilin were quantified by Western blot. (B) The relative ratio of p-cofilin/cofilin in response to R10015 treatment was plotted (n=4 independent experiments). (C) R10015 inhibits cofilin phosphorylation and T cell chemotaxis in response to CXCL12. A3R5.7 cells were treated with different dosages of R10015 for one hour, and then added to the upper chamber of a 24-well transwell plate. The lower chamber was filled with CXCL12 (40 ng/ml), and cell migration to the lower chamber was quantified (n=3 independent experiments). (D) The linear correlation between T cell migration and levels of cofilin phosphorylation. The X-axis is the relative ratio of p-cofilin/cofilin derived from (B); the Y-axis is the number of migrating cells derived from (C).
# T cell migration is controlled by cycles of cofilin phosphorylation and dephosphorylation, which are regulated by the LIM-domain kinase (LIMK) through serine 3 phosphorylation (27, 54). To quantify the direct effect of cofilin hyperactivation on T cell migration, we used a recently discovered LIMK inhibitor, R10015 (55), to block cofilin phosphorylation in A3R5.7 CD4 T cells. We then performed CXCL12-induced T cell chemotaxis in the presence of cofilin hyperactivation. […]
# A3R5.7 CD4 T cells = assay: CXCL12-induced T cell chemotaxis (transwell) assay; format: cell-based, human; details: CXCL12 40 ng/ml
# Procedure: as §1, with “(D) The linear correlation between T cell migration and levels of cofilin phosphorylation. The X-axis is the relative ratio of p-cofilin/cofilin derived from (B); the Y-axis is the number of migrating cells derived from (C).” left out
# T cell migration is controlled by cycles of cofilin phosphorylation and dephosphorylation, which are regulated by the LIM-domain kinase (LIMK) through serine 3 phosphorylation (27, 54). To quantify the direct effect of cofilin hyperactivation on T cell migration, we used a recently discovered LIMK inhibitor, R10015 (55), to block cofilin phosphorylation in A3R5.7 CD4 T cells. […]
# A half million cells were resuspended into 100 μl RPMI-1640 medium and then added to the upper chamber of a 24-well transwell plate (Corning, Corning, NY). […] The plate was incubated at 37° C. for 2 hours, and then the upper chamber was removed and cells in the lower chamber were counted. […]
# HIV-1 = details: cited from earlier work
# [2] = tested on: cofilin, LIMK in resting CD4 T cells; details: cited from earlier work; for effect on cofilin activation / phosphorylation: resting CD4 T cells
Molecule,"inhibition of cofilin phosphorylation ([1]; A3R5.7 CD4 T cells, different dosages of R10015 for one hour, ratio p-cofilin/cofilin)","cofilin phosphorylation reduced to ([1]; at around 15 M of R10015, A3R5.7 cells, one hour)","decrease in cell migration (A3R5.7 CD4 T cells; A3R5.7 CD4 T cells, at 50% reduction in cofilin phosphorylation)",T cell chemotaxis in response to CXCL12 (A3R5.7 CD4 T cells; A3R5.7 cells treated one hour),effect on HIV latent infection of resting CD4 T cells (HIV-1),effect on cofilin activation / phosphorylation [2],effect on LIMK ([2]; transient treatment of resting CD4 T cells)
COC(=O)c1ccc2nc(C3CCN(c4ncnc5[nH]cc(Cl)c45)CC3)[nH]c2c1 [R10015],dosage-dependent inhibition of cofilin phosphorylation,around 50%,20-40%,inhibits,,,
C=C1[C@@H](O)[C@@H]2O[C@]3(CC[C@H](/C=C/[C@@H](C)[C@@H]4CC(C)=C[C@@]5(O[C@H](C[C@@](C)(O)C(=O)O)CC[C@H]5O)O4)O3)CC[C@H]2O[C@@H]1[C@@H](O)C[C@H](C)[C@H]1O[C@@]2(CCCCO2)CC[C@H]1C [okadaic acid],,,,,promotes HIV latent infection,increase cofilin phosphorylation,activates LIMK
CN[C@@H]1C[C@H]2O[C@@](C)([C@@H]1OC)n1c3ccccc3c3c4c(c5c6ccccc6n2c5c31)C(=O)NC4 [staurosporine],,,,,enhances HIV latent infection,induce gradual cofilin activation,
pertussis toxin,,,,,inhibits,inhibits cofilin activation,
